In brackets after ≈: the same amount, converted by molar mass. Where a name gives a salt, the structure may show the parent alone. Read-outs that look alike come from different tables or passages of the source.
What was measured:
[1] = tested on: Staphylococcus aureus FDA 209P JC-1; assay: Antibacterial activity (MIC), S. aureus FDA 209P JC-1; format: cell-based; conditions: FDA209P; Staphylococcus aureus FDA 209P JC-1, Gram +; read-out: Minimum inhibitory concentration (MIC)
Experimental: (§1) The compounds of the present invention (A, C, D, E, F, G, H, I, J, L, O and P) and the known compound (X) as reference were dissolved in 0.1 N aqueous sodium hydroxide to prepare a solution of 5000 μg/ml in concentration. The compounds of the present invention (B, K, M and N) and the known compound (Y) were dissolved in sterilized distilled water to prepare a solution of 5000 μg/ml in concentration. Each solution was diluted with sterilized distilled water to prepare a standard solution with a concentration of each test compound: 1000 μg/ml. The test was carried out by a method as appointed by Japan Society of Chemotherapy [cf. Chemotherapy, 29, 76-79 (1981)(TOKYO)].

[2] = tested on: Staphylococcus aureus IID 803; assay: Antibacterial activity (MIC), S. aureus IID 803; format: cell-based; conditions: IID803; Staphylococcus aureus IID 803, Gram +; read-out: Minimum inhibitory concentration (MIC)
Experimental: as §1

[3] = tested on: Staphylococcus epidermidis IAM-1296; assay: Antibacterial activity (MIC), S. epidermidis IAM-1296; format: cell-based; conditions: Staphylococcus epidermidis, IAM1296, Staphylococcus epidermidis IAM-1296, Gram +; read-out: Minimum inhibitory concentration (MIC)
Experimental: as §1

[4] = tested on: Streptococcus faecalis IID 682; assay: Antibacterial activity (MIC), Streptococcus faecalis IID 682; format: cell-based; conditions: Enterococcus faecalis, IID682, Streptococcus faecalis IID 682, Gram +; read-out: Minimum inhibitory concentration (MIC)
Experimental: as §1

[5] = tested on: Bacillus subtilis ATCC 6633; assay: Antibacterial activity (MIC), Bacillus subtilis ATCC 6633; format: cell-based; conditions: Bacillus subtilis, ATCC6633, Bacillus subtilis ATCC 6633, Gram +; read-out: Minimum inhibitory concentration (MIC)
Experimental: as §1

[6] = tested on: Micrococcus luteus ATCC 9341; assay: Antibacterial activity (MIC), Micrococcus luteus ATCC 9341; format: cell-based; conditions: ATCC9341; Micrococcus luteus ATCC 9341, Gram +; read-out: Minimum inhibitory concentration (MIC)
Experimental: as §1

[7] = tested on: Escherichia coli NIHJ JC-2; assay: Antibacterial activity (MIC), E. coli NIHJ JC-2; format: cell-based; conditions: NIHJJC2; Escherichia coli NIHJ JC-2, Gram -; read-out: Minimum inhibitory concentration (MIC)
Experimental: as §1

Escherichia coli KC-14 = assay: Antibacterial activity (MIC), E. coli KC-14; format: cell-based; conditions: KC14; Escherichia coli KC-14, Gram -; read-out: Minimum inhibitory concentration (MIC)
Experimental: as §1

[8] = tested on: Klebsiella pneumoniae PCI-602; assay: Antibacterial activity (MIC), Klebsiella pneumoniae PCI-602; format: cell-based
Experimental: as §1

[9] = tested on: Salmonella typhimurium IID 971; assay: Antibacterial activity (MIC), Salmonella typhimurium IID 971; format: cell-based; conditions: Salmonella enterica; Salmonella typhimurium IID 971, Gram -; read-out: Minimum inhibitory concentration (MIC)
Experimental: as §1

Shigella sonnei EW-33 = assay: Antibacterial activity (MIC), Shigella sonnei EW-33; format: cell-based; conditions: Shigella sonnei, EW33, Shigella sonnei EW-33, Gram -; read-out: Minimum inhibitory concentration (MIC)
Experimental: as §1

[10] = tested on: Serratia marcescens IAM 1184; assay: Antibacterial activity (MIC), Serratia marcescens IAM 1184; format: cell-based; conditions: Serratia marcescens, IAM1184, Serratia marcescens IAM 1184, Gram -; read-out: Minimum inhibitory concentration (MIC)
Experimental: as §1

[11] = tested on: Pseudomonas aeruginosa IFO 3445; assay: Antibacterial activity (MIC), P. aeruginosa IFO 3445; format: cell-based; conditions: Pseudomonas aeruginosa, IFO3445, Pseudomonas aeruginosa IFO 3445, Gram -; read-out: Minimum inhibitory concentration (MIC)
Experimental: as §1

[12] = tested on: Pseudomonas aeruginosa NCTC 10490; assay: Antibacterial activity (MIC), P. aeruginosa NCTC 10490; format: cell-based; conditions: Pseudomonas aeruginosa, NCTC10490, Pseudomonas aeruginosa NCTC 10490, Gram -; read-out: Minimum inhibitory concentration (MIC)
Experimental: as §1

[13] = tested on: Pseudomonas aeruginosa E-2; assay: Antibacterial activity (MIC), P. aeruginosa E-2; format: cell-based; conditions: E2; Pseudomonas aeruginosa E-2, Gram -; read-out: Minimum inhibitory concentration (MIC)
Experimental: as §1

[14] = tested on: Morganella morganii IFO 3848; assay: Antibacterial activity (MIC), Morganella morganii IFO 3848; format: cell-based; conditions: Morganella morganii, IFO3848, Morganella morganii IFO 3848, Gram -; read-out: Minimum inhibitory concentration (MIC)
Experimental: as §1

Proteus vulgaris OX-19 = assay: Antibacterial activity (MIC), Proteus vulgaris OX-19; format: cell-based; conditions: OX19; Proteus vulgaris OX-19, Gram -; read-out: Minimum inhibitory concentration (MIC)
Experimental: as §1

[15] = tested on: Proteus mirabilis IFO 3849; assay: Antibacterial activity (MIC), Proteus mirabilis IFO 3849; format: cell-based; conditions: IFO3849; Proteus mirabilis IFO 3849, Gram -; read-out: Minimum inhibitory concentration (MIC)
Experimental: as §1

[16] = tested on: Enterobacter aerogenes ATCC 13048; assay: Antibacterial activity (MIC), Enterobacter aerogenes ATCC 13048; format: cell-based; conditions: Klebsiella aerogenes, ATCC13048; Enterobacter aerogenes ATCC 13048, Gram -; read-out: Minimum inhibitory concentration (MIC)
Experimental: as §1

Enterobacter cloacae 963 = assay: Antibacterial activity (MIC), Enterobacter cloacae 963; format: cell-based; conditions: Enterobacter cloacae, 963, Enterobacter cloacae 963, Gram -; read-out: Minimum inhibitory concentration (MIC)
Experimental: as §1

[17] = tested on: Citrobacter freundii NIHJ 10018-68; assay: Antibacterial activity (MIC), Citrobacter freundii NIHJ 10018-68; format: cell-based; conditions: Citrobacter freundii, NIHJ10018, Citrobacter freundii NIHJ 10018-68, Gram -; read-out: Minimum inhibitory concentration (MIC)
Experimental: as §1

[18] = tested on: Acinetobacter calcoaceticus AC 54; assay: Antibacterial activity (MIC), Acinetobacter calcoaceticus AC 54; format: cell-based; conditions: AC54; Acinetobacter calcoaceticus AC 54, Gram -; read-out: Minimum inhibitory concentration (MIC)
Experimental: as §1

[19] = tested on: clinically isolated methicillin resistant Staphylococcus aureus; assay: MIC against clinically isolated methicillin resistant Staphylococcus aureus; format: cell-based; conditions: 54 strains; for MIC50: minimum concentration for inhibiting growth of the strains by 50%; for MIC90: minimum concentration for inhibiting growth of the strains by 90%
Experimental: The compounds (A) and (J) of the present invention and the known compound (X) were dissolved in 0.1 N aqueous sodium hydroxide, and the known compound (Y) in sterilized distilled water, to prepare a solution of 5000 μg/ml in concentration each. The above solutions were then diluted with sterilized distilled water to prepare a standard solution with a concentration of the test compound: 1000 μg/ml each. The test was carried out by a method appointed by Japan Society of Chemotherapy (ibidem) to measure minimum inhibitory concentration (MIC) against 54 strains of clinically isolated methicillin resistant Staphylococcus aureus, from which there were calculated a range of MIC (MICrange) of the test compound against these resistant strains, a minimum concentration for inhibiting the growth of the strains by 50% (MIC50) and a minimum concentration for inhibiting the growth of the strains by 90% (MIC90).

[20] = tested on: Staphylococcus aureus IID 803; assay: Effect on treatment of general infectious disease, S. aureus IID 803 (Experiment 3); format: in vivo, ddY male mice infected with Staphylococcus aureus; conditions: IID803, 168 h, oral, 1 h after i.p. infection, 5.0×10^7 CFU/mouse, survival after one week
Experimental: Staphylococcus aureus IID 803 (5.0×10^7 CFU/mouse)
(§2) The test microorganisms were subjected to standing culture in Trypto-Soya Agar "Nissui" (made by Nissui Seiyaku K.K., Japan) at 37° C. for 16 to 18 hours. The culture was then diluted with PBS (Dulbecco's phosphate buffered saline) and mixed with an equivalent amount of 10% (w/v) Mucin (BACTO MUCIN BACTERIOLOGICAL, made by Difco Co.) to prepare a microorganism solution. The thus prepared microorganism solution (0.5 ml each) was intraperitoneally inoculated to ddY male mice (5 weeks age, weighing 25-28 g, 5 mice in each group), to infect the animals. One hour after the infection, the compound (A) or (J) of the present invention or the known compound (X) suspended in 1% (w/v) aqueous gum arabic or the known compound (Y) dissolved in sterilized distilled water was orally adiministered to mice.
(§3) The mice were daily observed for one week, and from the survival number of mice after one week, the 50% effective dose (ED50) was calculated by Weil method.

[21] = tested on: Pseudomonas aeruginosa E-2; assay: Effect on treatment of general infectious disease, P. aeruginosa E-2 (Experiment 3); format: in vivo, ddY male mice infected with Pseudomonas aeruginosa; conditions: E2, 168 h, oral, 1 h after i.p. infection, 3.1×10^4 CFU/mouse, survival after one week
Experimental: Pseudomonas aeruginosa E-2 (3.1×10^4 CFU/mouse)
as §2, §3

## CC1COc2c(N3CCN(C)CC3)c(F)cc3c(=O)c(C(=O)O)cn1c23 (stereo not drawn) [Compound (X), 9-Fluoro-3-methyl-10-(4-methyl-1-piperazinyl)-7-oxo-2,3-dihydro-7H-pyrido[1,2,3-de][1,4]-benzoxazine-6-carboxylic acid, reference compound]
[1]
  MIC: 0.39 µg/mL (≈ 1.08 µM)
[2]
  MIC: 0.39 µg/mL (≈ 1.08 µM)
[3]
  MIC: 0.78 µg/mL (≈ 2.16 µM)
[4]
  MIC: 1.56 µg/mL (≈ 4.32 µM)
[5]
  MIC: 0.1 µg/mL (≈ 0.277 µM)
[6]
  MIC: 3.13 µg/mL (≈ 8.66 µM)
[7]
  MIC: 0.1 µg/mL (≈ 0.277 µM)
Escherichia coli KC-14
  MIC: 0.1 µg/mL (≈ 0.277 µM)
[8]; PCI602, Klebsiella pneumoniae PCI-602, Gram -, read-out: Minimum inhibitory concentration (MIC)
  MIC: 0.05 µg/mL (≈ 0.138 µM)
[9]
  MIC: 0.05 µg/mL (≈ 0.138 µM)
Shigella sonnei EW-33
  MIC: 0.05 µg/mL (≈ 0.138 µM)
[10]
  MIC: 0.78 µg/mL (≈ 2.16 µM)
[11]
  MIC: 1.56 µg/mL (≈ 4.32 µM)
[12]
  MIC: 1.56 µg/mL (≈ 4.32 µM)
[13]
  MIC: 1.56 µg/mL (≈ 4.32 µM)
[14]
  MIC: 0.1 µg/mL (≈ 0.277 µM)
Proteus vulgaris OX-19
  MIC: 0.05 µg/mL (≈ 0.138 µM)
[15]
  MIC: 0.39 µg/mL (≈ 1.08 µM)
[16]
  MIC: 0.1 µg/mL (≈ 0.277 µM)
Enterobacter cloacae 963
  MIC: 0.2 µg/mL (≈ 0.553 µM)
[17]
  MIC: 0.39 µg/mL (≈ 1.08 µM)
[18]
  MIC: 0.39 µg/mL (≈ 1.08 µM)
[19]
  MIC: 0.39 to 1.56 µg/mL (≈ 1.08 to 4.32 µM)
  MIC50: 0.78 µg/mL (≈ 2.16 µM)
  MIC90: 1.56 µg/mL (≈ 4.32 µM)
[20]
  ED50: 14 mg/kg
[21]
  ED50: 14 mg/kg

## CN1CCN(c2c(F)cc3c(=O)c(C(=O)O)c4scc5n4c3c2OC5)CC1 [Compound (Y), 9,1-Epoxymethano-7-fluoro-8-(4-methyl-1-piperazinyl)-5-oxo-5H-thiazolo[3,2-a]quinoline-4-carboxylic acid hydrochloride, reference compound]
[1]
  MIC: 0.2 µg/mL
[2]
  MIC: 0.2 µg/mL
[3]
  MIC: 0.39 µg/mL
[4]
  MIC: 0.78 µg/mL
[5]
  MIC: 0.1 µg/mL
[6]
  MIC: 1.56 µg/mL
[7]
  MIC: 0.1 µg/mL
Escherichia coli KC-14
  MIC: 0.1 µg/mL
[8]; Klebsiella pneumoniae, PCI602, read-out: Minimum inhibitory concentration (MIC)
  MIC: 0.025 µg/mL
[9]
  MIC: 0.05 µg/mL
Shigella sonnei EW-33
  MIC: 0.05 µg/mL
[10]
  MIC: 0.39 µg/mL
[11]
  MIC: 1.56 µg/mL
[12]
  MIC: 0.78 µg/mL
[13]
  MIC: 0.78 µg/mL
[14]
  MIC: 0.1 µg/mL
Proteus vulgaris OX-19
  MIC: 0.05 µg/mL
[15]
  MIC: 0.2 µg/mL
[16]
  MIC: 0.1 µg/mL
Enterobacter cloacae 963
  MIC: 0.1 µg/mL
[17]
  MIC: 0.2 µg/mL
[18]
  MIC: 0.2 µg/mL
[19]
  MIC: 0.05 to 0.39 µg/mL
  MIC50: 0.1 µg/mL
  MIC90: 0.2 µg/mL
[20]
  ED50: 11.7 mg/kg
[21]
  ED50: 11.7 mg/kg
